Results reported in ChEMBL document CHEMBL3430912, “GSK Tres Cantos Anti-Kinetoplastid Screening (TCAKS) Data”.

Columns and labels:
[1] = system: Trypanosoma brucei brucei; assay: GSK_TCAKS: pIC50 Trypanosoma brucei viability assay using fluorescence intensity. Assay plates (1536-well) were prepared by dispensing 25nL of compound solution per well using an Echo acoustic dispenser (Labcyte).; assay type: functional, organism-based; details: Lister 427, 2 h
[2] = system: Trypanosoma brucei brucei; assay: GSK_TCAKS: pIC50 Trypanosoma brucei viability assay using luminiscence. Assay plates (1536-well) were prepared. T. brucei cultures were harvested and counted in a CASY cell counter. A parasite suspension was prepared at a final concentration of 5 * 10^4 cells/mL in complete HMI9 medium and 6uL was dispensed to all wells containing compounds using a Multidrop Combi dispenser. 6uL of HMI9 media with 0.4% DMSO were dispensed to control columns. Plates were incubated for 24 h at 37C, 5% CO2 then tempered for 10 min at room temperature. ATP content was quantified by adding 4 uL of CellTiter-Glo Reagent (Promega) according to the manufacturer's instructions. Luminescence was measured using a ViewLux.; assay type: functional, organism-based; details: Lister 427, CASY
[3] = system: Trypanosoma cruzi; assay: (§1) GSK_TCAKS: pIC50 H2C9 Imaging: H9c2 Host Cardiomyocytes. […] Cells were then washed once with PBS before infection. T. cruzi trypomastigotes, collected at days 5 to 8 after infection from LLC-MK2 parasite infected cultures, were allowed to swim out for 4h at 37C from a centrifuged pellet (2,500 rpm/10 min/room temperature). Trypomastigotes were then collected and counted in a CASY Cell Counter. Trypomastigotes, in supplemented DMEM, were added to H9c2 cultures in a multiplicity of infection of 1 and incubated for 18 h. Cells were washed once with PBS before incubation of the infected H9c2 monolayer with trypsin (Life-Technologies) to detach cells from the flask. Cells were counted in a CASY Cell Counter using a 150 um capillary and their density set at 5 * 10^4 cells per mL in supplemented assay DMEM. Infected H9c2 were dispensed into 384-well poly-lysine coated assay plates at 50uL per well using a Multidrop Combi dispenser. After seeding them, the plates were incubated at 37C, 5% CO2 for 72h. Cultures were then fixed and stained by addition of 50 uL of a solution containing 8% formaldehyde and 4 uM DRAQ5 DNA dye (BioStatus, UK) per well. […] Five images were collected per well for reliable statistical analysis. Automated image analysis was performed with a script developed on Acapella High Content Imaging and Analysis Software (PerkinElmer). Output: Number of H9c2 Host Cardiomyocytes nuclei to determine drug-related cytotoxicity.; assay type: functional, organism-based, Rattus norvegicus; details: H9c2, 4 h
[4] = system: Leishmania donovani; assay: GSK_TCAKS: pIC50 Leishmania donovani viability assay using fluorescence intensity. Assay plates (1536-well) were prepared by adding 30nL per well of compound. For single shot assay, the final compound concentration was 5uM. […] Briefly, eGFP LdBOB axenic amastigotes were harvested, fixed and counted in a CASY cell counter (Roche-Applied Science). A final concentration of 1.5 * 10^5 cells per well were prepared in amastigote media containing 500 U/mL penicillin/streptomycin (Invitrogen) and 6uL was dispensed to each experimental well using a Multidrop Combi dispenser (Thermo Scientific). 6uL of assay media was dispensed to control columns used as reference for 100% compound response. Following incubation for 72 h at 37C, 5% CO2, 2 uL of resazurin was added to each well at a final concentration of 0.5 mM in phosphate buffered saline (PBS) with IGEPAL (Sigma-Aldrich), 0.05% (v/v).; assay type: functional, organism-based
[5] = GSK_TCAKS: pIC50 HepG2 human cell line viability assay using luminiscence. […] Seeding density was checked to ensure that new mono-layers were not more than 50% confluent at the time of harvesting. Cell suspension was added to 500 mL of the same medium at a final density of 1.2 * 10^5 cells/mL. This cell suspension was dispensed (25 uL, 3000 cells per well) into 384-well clear-bottom plates using a Multidrop Combi dispenser. Prior to addition of the cell suspension, the screening compounds (250 nL) were pre-dispensed into the plates with an Echo liquid handler. Plates were incubated for 48 h at 37C, 5% CO2. After incubation, plates equilibrated at room temperature for 30 min before proceeding to develop the luminescent signal. The signal developer, CellTiter-Glo Reagent, was allowed to equilibrate at room temperature for 30 min and added to the plates (25uL per well) using a Multidrop Combi dispenser. Plates were left for 10 min at room temperature for stabilization and then read using a ViewLux.; assay type: toxicity, cell-based
[6] = system: Trypanosoma cruzi; assay: GSK_TCAKS: pIC50 Trypanosoma cruzi viability assay using beta-GAL activity. This assay was run at single shot at 5uM compound concentration per well. The biological reagents consisted of NIH-3T3 host cells and trypomastigotes parasitic cells; both cell types were set to a 3.3 * 10^5 cells/mL dilution in assay DMEM by means of a CASY cell counter device using a 60um capillary. 6 uL of the mixture were dispensed per well (about 1 * 10^3 host-cells and 1 * 10^3 parasites) with a Multidrop Combi dispenser. […] In all wells, the percentage of DMSO never exceeded 0.5%. Plates incubated for four days at 37C, 5% CO2. The substrate used for the assay fluorescence intensity (FLINT) readout was resorufin-beta-D-galactopiranoside (Sigma-Aldrich) at 5uM per well. It was diluted in PBS supplemented with the soft detergent Igepal (Fluka).; assay type: functional, organism-based, Mus musculus; details: Tulahuen, NIH3T3
[7] = system: Trypanosoma cruzi; assay: as §1, with “Trypanosoma cruzi” for “H2C9”, “Infected Cells.” for “H9c2 Host Cardiomyocytes.”, “percentage” for “Number”, “infected cells per well as a second infection marker.” for “H9c2 Host Cardiomyocytes nuclei to determine drug-related cytotoxicity.”; assay type: functional, organism-based, Rattus norvegicus; details: H9c2, 4 h
[8] = system: Leishmania donovani; assay: (§2) GSK_TCAKS: pIC50 Leishmania donovani Imaging: Infected Macrophages. Assay plates (384-well) were prepared by adding 250nL of compound to each well. For single shot assay, the final compound concentration was 5 uM. […] Automated image analysis was performed with a script developed on Acapella High Content Imaging and Analysis Software (PerkinElmer). Output: Percent of infected macrophage cells were reported for each well.; assay type: functional, organism-based, Homo sapiens; details: THP-1
[9] = molecular target: Sterol 14-alpha demethylase (Trypanosoma cruzi (strain CL Brener), UniProt Q7Z1V1); assay: GSK_TCAKS: pIC50 CYP51 from Trypanosoma cruzi.; assay type: functional
Sequence of Sterol 14-alpha demethylase (Q7Z1V1 whole entry): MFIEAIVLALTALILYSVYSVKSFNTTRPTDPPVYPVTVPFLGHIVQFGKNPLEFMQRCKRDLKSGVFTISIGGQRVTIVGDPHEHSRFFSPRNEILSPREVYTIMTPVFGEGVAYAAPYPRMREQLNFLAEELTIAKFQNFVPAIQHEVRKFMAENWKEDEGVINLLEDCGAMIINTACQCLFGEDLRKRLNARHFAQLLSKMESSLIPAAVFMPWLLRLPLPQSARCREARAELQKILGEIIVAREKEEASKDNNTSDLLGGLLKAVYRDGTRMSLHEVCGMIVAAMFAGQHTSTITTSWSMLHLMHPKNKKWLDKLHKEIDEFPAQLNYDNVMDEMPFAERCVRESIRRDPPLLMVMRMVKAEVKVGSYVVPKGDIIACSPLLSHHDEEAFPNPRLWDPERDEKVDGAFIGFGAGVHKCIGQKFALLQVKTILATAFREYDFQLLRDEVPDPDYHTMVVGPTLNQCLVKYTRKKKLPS

[10] = system: Trypanosoma cruzi; assay: as §1, with “Trypanosoma cruzi” for “H2C9”, “Amastigotes/Cell.” for “H9c2 Host Cardiomyocytes.”, “number” for “Number”, “amastigotes per cell as infection level measurement.” for “H9c2 Host Cardiomyocytes nuclei to determine drug-related cytotoxicity.”; assay type: functional, organism-based, Rattus norvegicus; details: H9c2, 4 h
[11] = system: Leishmania donovani; assay: as §2, with “THP-1 Host” for “Infected”, “THP-1 cell count” for “Percent of infected macrophage cells”; assay type: functional, organism-based, Homo sapiens
[12] = system: Leishmania donovani; assay: as §2, with “Amastigotes/Macrophages.” for “Infected Macrophages.”, “Average number” for “Percent”, “amastigotes per” for “infected”, “cell” for “cells”; assay type: functional, organism-based, Homo sapiens; details: THP-1

SMILES | IC50 [1] [µM] | IC50 [2] [µM] | IC50 [3] [µM] | IC50 [4] [µM] | IC50 at 48 h [5] [µM] | IC50 [6] [µM] | IC50 [7] [µM] | IC50 [8] [µM] | IC50 [9] [µM] | IC50 [10] [µM] | IC50 [11] [µM] | IC50 [12] [µM]
O=C(CSc1nnc(-c2ccc3c(c2)OCO3)o1)N(Cc1ccco1)CC(F)(F)F | > 39.8 | > 39.8 | > 50.1 | 15.8 | > 100 | 10 | 3.16 | 7.94 | 25.1 | 2.51 | > 50.1 | 3.16
N#Cc1ccccc1S(=O)(=O)N1CCN(C(=O)CNC(=O)c2ccc3c(c2)OCO3)CC1 | > 39.8 | > 39.8 | > 50.1 | 0.631 | > 100 | 15.8 | 1 | 5.01 | 79.4 | 0.631 | > 50.1 | 1.58
COc1ccc(NC(=O)c2ccc(NC(=O)CN(c3ccccc3C)S(C)(=O)=O)cc2)cc1 | 0.2 | 0.794 | 25.1 | > 50.1 | 39.8 | 31.6 | 25.1 | > 50.1 | 6.31 | 20 | > 50.1 | 7.94
COc1ccc(S(=O)(=O)Nc2ccc(C(=O)Nc3nc(-c4ccccn4)cs3)cc2)cc1 | 0.794 | 0.631 | 6.31 | 1 | 63.1 | 0.891 | 0.794 | 0.398 | 0.398 | 0.631 | 10 | 0.158
COc1cccc2sc(CN(C)C(=O)C3CNCCN3c3ccc(F)cc3)c(C)c12 (stereo not drawn) | 0.158 | 0.251 | 7.94 | 31.6 | 12.6 | 0.398 | 0.2 | 6.31 | 0.251 | 0.158 | 12.6 | 3.98
CCCCCNC(=O)c1c[nH]c2ccc(S(=O)(=O)N(C)c3ccc(OCC)cc3)cc2c1=O | 0.316 | 0.251 | > 50.1 | > 50.1 | > 100 | 31.6 | > 50.1 | > 50.1 | 1.58 | > 50.1 | > 50.1 | > 50.1
CCOc1ccc2nc(NC(=O)c3ccc([N+](=O)[O-])s3)sc2c1 | 1.26 | 2.51 | 10 | 2.51 | 31.6 | 1.78 | 1.26 | 6.31 | > 100 | 1 | > 50.1 | 5.01
O=C(NCC(c1cccs1)N1CCOCC1)c1ccc([N+](=O)[O-])o1 (stereo not drawn) | 0.316 | 0.316 | 5.01 | 31.6 | 20 | 3.16 | 15.8 | 25.1 | 10 | 15.8 | 25.1 | 15.8
CCN(CC)c1ncc(C(=O)c2ccc([N+](=O)[O-])o2)s1 | 0.1 | 0.398 | 5.01 | 5.01 | 15.8 | 3.98 | 12.6 | 10 | 39.8 | 7.94 | 6.31 | 10
